{
  "source": "paper PMC5473904",
  "about": "“Epigenetic and antitumor effects of platinum(IV)-octanoato conjugates” (Scientific Reports, 2017)",
  "key": {"[1]": {"system": "DNA methylation in HCT-116 cells", "assay": "DNA methylation analysis (Imprint methylated DNA quantification kit)", "format": "cell-based, human", "settings": "HCT-116, 1 µM", "procedure": "Human colon adenocarcinoma cells HCT-116 were chosen as the model cellular system suitable for DNA methylation analysis because: (i) this human colorectal cancer cell line has been used as a prototypic model for analyses of the genetic basis of cancer, and the role of epigenetic changes in tumorigenesis; (ii) they have a propensity to both global DNA hypomethylation and to silence genes through promoter focal hypermethylation, [21]. HCT-116 cells were treated with the compounds at the concentrations indicated in Fig. 4A for 24 or 72 h and DNA was isolated for the complete methylation analysis as described in the experimental section. Decitabine (5-aza-2′-deoxycytidine), a hypomethylating agent which hypomethylates DNA by inhibiting DNMT, was used in these experiments as a […]. The IC50 values found for this agent in HCT-116 cells (the drug-treatment period was 72 h) was (7.5 ± 0.3) µM (Table 1).\nFigure 4 Analysis of DNA methylation. (A) DNA was isolated from HCT-116 cells after the exposure to the agents at the concentrations indicated in the graph for 24 or 72 h. The levels of DNA methylation in the control was taken as 100%. The bars represent mean values from three independent experiments each performed in octuplicate. The error bars are the SDs. (B) DNMT activity in colon carcinoma cells HCT-116 treated for 24 h with the compounds tested in the present work. The DNMT activity in the control, untreated cells was taken as 100%. Error bars are the SDs and the stars at the top of bars denote a significant difference from the control with (*p < 0.05; **p < […]), calculated using […] student’s t-test. The bars represent mean values from three independent experiments, each performed in quadruplicate.\nHuman colon carcinoma cells (HCT-116) were seeded at the density 1.5 × 10^6 cells/dish. […] The DNA content in each sample was determined by UV spectrophotometry. DNA (200 ng) from the samples was loaded to the Imprint methylated DNA quantification kit (Sigma-Aldrich, USA). The level of methylated DNA was proportional to the absorbance measured at 450 nm."}, "[2]": {"system": "HCT-116 human colorectal carcinoma cells", "assay": "MTT cytotoxicity, 72 h", "format": "cell-based", "settings": "MTT, 72 h, platinum complexes and decitabine", "procedure": "(§1) Cytotoxic activity of the compounds tested in the present work was screened on the panel of malignant and nonmalignant cell lines using the colorimetric MTT assay and 72 h of drug incubation period.\n(§2) Cell death was evaluated using a system based on the tetrazolium compound MTT [3-(4,5-dimethyl-2-thiazolyl)-2,5-diphenyl-2H-tetrazolium bromide]. The cells were seeded in 96-well tissue culture plates at a density of 10^4 A2780cisR, LNCaP, HSF cells/well, 3 × 10^3 CHO-K1 or 4 × 10^3 MCF7, HCT-116 and MRC5 pd30 cells/well in 100 μL of medium. After overnight incubation (16 h), the cells were treated with the compounds in a final volume of 200 μL/well. After additional 72 h, 10 μL of a freshly diluted MTT solution (2.5 mg mL^−1) was added to each well, and the plate was incubated at 37 °C in a humidified 5% CO2 atmosphere for 4 h. At the end of the incubation period, the medium was removed, and the formazan product was dissolved in 100 μL of DMSO. The cell viability was evaluated by measurement of the absorbance at 570 nm, using an Absorbance Reader SUNRISE TECAN SCHOELLER. IC50 values were calculated from curves constructed by plotting cell survival (%) versus drug concentration (μM). All experiments were made in triplicate. The reading values were converted to the percentage of control (% cell survival). Cytotoxic effects were expressed as IC50."}, "[3]": {"system": "DNA from HCT-116 cells", "assay": "Platinum content on DNA isolated from treated cells (ICP-MS)", "format": "cell-based, human", "settings": "HCT-116, 24 h, 0.35 µM", "procedure": "(§3) As for antitumor cisplatin and its direct derivatives, DNA is believed to be the target also for Pt(IV) prodrugs examined in the present work.\n(§4) The cells were seeded in 150 cm^2 culture flasks at a density 1 × 10^7 cells/flask (67 000 cells/cm^2). After 48-h incubation, the cells were treated with the compounds (0.35 μM) for 24 h. The attached cells were washed twice with PBS (4 °C). As mentioned in the preceding paragraph, 75% of cells were used for analysis of platinum bound to DNA, remaining 25% were used for estimations of cellular accumulation of platinum. Cells were then lysed in DNAzol (DNAzol® genomic DNA isolation reagent, MRC) supplemented with RNase A (100 μg mL^−1). The genomic DNA was precipitated from the lysate with ethanol, dried and resuspended in water. The DNA content in each sample was determined by UV spectrophotometry. The DNA samples were digested in the presence of hydrochloric acid (11 M) using high-pressure microwave mineralization system (MARS5, CEM). The platinum content was determined by ICP-MS. Experiments were performed in triplicate and the values are the means ± SD."}, "[4]": {"system": "DNA from A2780 cells", "assay": "Platinum content on DNA isolated from treated cells (ICP-MS)", "format": "cell-based, human", "settings": "A2780, 24 h, 0.35 µM", "procedure": "as §3, §4"}, "[5]": {"system": "PNT1a", "assay": "MTT cytotoxicity, 72 h", "format": "cell-based", "settings": "platinum complexes"}, "[6]": {"system": "A2780 human ovarian carcinoma cells", "assay": "MTT cytotoxicity, 72 h", "format": "cell-based", "settings": "MTT, 72 h, platinum complexes"}, "[7]": {"system": "HCT-116 cells", "assay": "Cellular platinum accumulation/distribution by ICP-MS", "format": "cell-based, human", "settings": "HCT-116, 24 h, 0.35 µM"}, "[8]": {"system": "A2780cisR human ovarian carcinoma cells", "assay": "MTT cytotoxicity, 72 h", "format": "cell-based", "procedure": "as §1, §2"}, "[9]": {"system": "LNCaP human prostate adenocarcinoma cells", "assay": "MTT cytotoxicity, 72 h", "format": "cell-based", "settings": "platinum complexes", "procedure": "as §1, §2"}, "[10]": {"system": "CHO-K1 Chinese hamster ovary cells", "assay": "MTT cytotoxicity, 72 h", "format": "cell-based", "settings": "platinum complexes", "procedure": "as §1, §2"}, "[11]": {"system": "MRC-5 (PD30) human fetal lung fibroblasts", "assay": "MTT cytotoxicity, 72 h", "format": "cell-based", "settings": "platinum complexes", "procedure": "as §1, §2"}, "[12]": {"system": "HSF human primary skin fibroblasts", "assay": "MTT cytotoxicity, 72 h", "format": "cell-based", "settings": "platinum complexes", "procedure": "as §1, §2"}, "[13]": {"system": "MCF-7 human breast cancer cells", "assay": "MTT cytotoxicity, 72 h", "format": "cell-based", "settings": "platinum complexes", "procedure": "as §1, §2"}, "[14]": {"system": "A2780 cells", "assay": "Cellular platinum accumulation/distribution by ICP-MS", "format": "cell-based, human", "settings": "0.35 µM", "procedure": "(§5) Cellular concentrations of platinum were determined by inductively coupled plasma mass spectrometry (ICP-MS) after 24 h of exposure to the complexes at the concentration of 0.35 µM.\n(§6) Cellular uptake studies were also carried out to measure the accumulation of platinum species in cytosol and nucleus. […] The platinum levels in each pool were measured by ICP-MS. The extent of accumulation of both OA conjugated Pt(IV) prodrugs into the cytosol and nucleus fractions was markedly higher than that of cisplatin or Pt(IV)diAc.\n(§7) The cells were seeded in 150 cm^2 culture flasks at a density 1 × 10^7 cells/flask (67 000 cells/cm^2). After 48-h incubation, the cells were treated with the compounds (0.35 μM) for 24 h. The attached cells were washed twice with PBS (4 °C). Seventy-five percent of cells were used for analysis of platinum bound to DNA, remaining 25% were used for estimations of cellular accumulation of platinum. Cell pellets were digested by a high-pressure microwave digestion system (MARS5, CEM) with HCl to give a fully homogenized solution, and final platinum content was determined by ICP-MS. The analysis with the aid of ICP-MS was performed using Agilent 7500 (Agilent, Japan) or Thermo Optek X Series.\n(§8) A2780 cells were seeded in 100 mm tissue culture dishes (3 × 10^6 cells) and grown for 48 h to 80–90% confluence. Cells were harvested after 24 h of treatment. Concretely, the dishes were washed two times with ice-cold PBS and the cells scraped into tubes and centrifuged for 10 min at 0 °C (200 g). The pellets were resuspended in the lysis buffer [Tris·HCl (10 mM, pH 8.0), KCl (60 mM), EDTA (1.2 mM), DTT (1 mM), phenylmethanesulfonyl fluoride (PMSF, 0.1 mM), NP-40 (0.04%)] for 10 min on ice and centrifuged for 4 min at 0 °C (800 g). Cytosolic fraction was separated for platinum ICP-MS analysis, and protein concentration was determined by Bradford assay. The pellets were rinsed with the above lysis buffer without PMSF and NP-40 and centrifuged for another 4 min at 0 °C (300 g). The pellets were resuspended in 50 µL nuclear extraction buffer [Tris·HCl (20 mM, pH 8.0), NaCl (420 mM), MgCl2 (0.7 mM), EDTA (0.25 mM), glycerol (25%)] and incubated for 30 min at 4 °C, continuously mixed on end-over-end roller, and then centrifuged for 15 min at 0 °C (13000 g). Protein concentration in nuclear extracts was determined by the Bradford assay, and stored at −80 °C until analysis."}, "[15]": {"system": "HCT-116 cells", "assay": "Cellular platinum accumulation/distribution by ICP-MS", "format": "cell-based, human", "settings": "HCT-116, 24 h exposure, 0.35 µM", "procedure": "as §5, §6, §7, §8"}, "[16]": {"set-up": "method as in PMID 25888926", "settings": "valproato complexes; cited from earlier work"}, "[17]": {"settings": "rough estimate from Tables 2 and 3"}},
  "data": [
    {"smiles": "Nc1ncn([C@H]2C[C@H](O)[C@@H](CO)O2)c(=O)n1", "note": "[Decitabine, 5-aza-2′-deoxycytidine, reference compound]", "values": [
      {"measurement": "Change of DNA methylation", "setting": "[1]", "result": "considerably lowered level of DNA methylation"},
      {"measurement": "IC50", "setting": "[2]; Homo sapiens, HCT-116", "result": "7500 ± 300", "unit": "nM"}
    ]},
    {"smiles": "CCCCCCCC(=O)[O][Pt]([NH2])([NH2])([Cl])([Cl])[O]C(C)=O", "note": "[Pt(IV)AcOA, cis, cis, trans-[Pt(IV)(NH3)2Cl2AcOA]]", "values": [
      {"measurement": "Platinum content on DNA", "setting": "[3]", "result": "19.8 ± 3.6", "unit": "pg Pt/µg DNA"},
      {"measurement": "Platinum on DNA, % from the total intracellular Pt amount", "setting": "[3]; [17]", "result": 4.8, "unit": "%"},
      {"measurement": "Platinum content on DNA", "setting": "[4]", "result": "8.0 ± 1.4", "unit": "pg Pt/µg DNA"},
      {"measurement": "Platinum on DNA, % from the total intracellular Pt amount", "setting": "[4]; [17]", "result": 5.0, "unit": "%"},
      {"measurement": "IC50", "setting": "[5]", "result": "150 ± 3", "unit": "nM"},
      {"measurement": "IC50", "setting": "[6]", "result": "350 ± 50", "unit": "nM"},
      {"measurement": "Platinum in cytosol", "setting": "[7]", "result": "48 ± 2", "unit": "pg Pt/µg protein"},
      {"measurement": "Platinum in nucleus", "setting": "[7]", "result": "55 ± 7", "unit": "pg Pt/µg protein"},
      {"measurement": "RF, resistance factor", "setting": "[8]; IC50 (resistant, A2780cisR)/IC50 (sensitive, A2780)", "result": 1.1},
      {"measurement": "IC50", "setting": "[8]; MTT, 72 h, platinum complexes", "result": "370 ± 60", "unit": "nM"},
      {"measurement": "IC50", "setting": "[9]", "result": "270 ± 100", "unit": "nM"},
      {"measurement": "IC50", "setting": "[10]", "result": "1100 ± 200", "unit": "nM"},
      {"measurement": "IC50", "setting": "[2]", "result": "930 ± 20", "unit": "nM"},
      {"measurement": "IC50", "setting": "[11]", "result": "409 ± 215", "unit": "nM"},
      {"measurement": "IC50", "setting": "[12]", "result": "957 ± 19", "unit": "nM"},
      {"measurement": "IC50", "setting": "[13]", "result": "500 ± 40", "unit": "nM"},
      {"measurement": "Platinum in cytosol", "setting": "[14]; A2780, 24 h", "result": "28 ± 4", "unit": "pg Pt/µg protein"},
      {"measurement": "Platinum in nucleus", "setting": "[14]; A2780, 24 h", "result": "27 ± 4", "unit": "pg Pt/µg protein"},
      {"measurement": "Total cellular platinum accumulation", "setting": "[14]; A2780, 24 h exposure", "result": "4.0 ± 0.9", "unit": "ng Pt/10^6 cells"},
      {"measurement": "Total cellular platinum accumulation", "setting": "[15]", "result": "6.0 ± 0.9", "unit": "ng Pt/10^6 cells"}
    ]},
    {"smiles": "CCCC(CCC)C(=O)[O][Pt]([NH2])([NH2])([Cl])([Cl])[O]C(C)=O", "note": "[Pt(IV)AcVPA, reference compound]", "values": [
      {"measurement": "logP", "setting": "[16]", "result": 0.17}
    ]}
  ]
}
